How the values were obtained:
A549 cells [1] = experiment: Colony survival assay, A549; assay type: cell-based; details: A549, VX-680 treatment alone, 48 h
Experimental: Colonies were counted 2 weeks after recovery in drug-free media. Cells were fixed with glutaraldehyde and stained with crystal violet. Plates are scanned and colonies were counted with an automated image analyzer. Three independent experiments were performed for each cell line.
Each data point represents the mean±S.D.
A total of 1000 cells were plated on each 10 cm plate and allowed to adhere overnight. […] After 48 h, cells were washed and recovered in fresh media for 12 days. Cells were then fixed in 6% glutaraldehyde (Sigma) and stained with crystal violet. Colonies were counted using GelCount™ (Oxford Optronix, Oxford, England). Each condition was carried out in triplicate.

human keratinocytes = details: HEK cells treated with VX-680
Experimental: Primary human keratinocytes were purchased from Invitrogen and cultured in defined keratinocyte serum-free media (Invitrogen). All cell lines were cultured in a CO2 incubator (5% CO2 and 21% O2) at 37° C.
For analysis of cell cycle distribution, cells were harvested and fixed in 70% ethanol/PBS solution. Cells were stained in propidium-iodide containing solution (25 μg/ml propidium iodide supplemented with 1 mg/ml RNase A, in PBS (pH 7.8); Sigma Chemical, St Louis, Mo., USA) for 15 min at room temperature.

[2] = tested on: A549 cells transfected with p53-specific siRNA; experiment: Cell cycle analysis of A549 cells transfected with p53 siRNA and exposed to VX-680; assay type: cell-based; details: A549 with p53 siRNA knockdown, exposed to VX-680
Experimental: (B) Extent of endoreduplication is exacerbated in cells with compromised p53 functions. A549 cells transfected with p53 siRNA (Dharmacon pool) were incubated with VX-680 (200 nM) for the indicated time periods after transfection. […] DNA-dependent cell cycle analysis was performed using flow cytometry.
p53 siRNA oligo 1 (p53si) 5′-[…] GCGUCUU-3′ (SEQ ID NO: 9), cyclin A2 siRNA 5′-[…]-3′ (SEQ ID NO: 10) and cyclin B1 siRNA 5′-[…]-3′ were from Dharmacon (Lafayette, Colo., USA) (SEQ ID NO:11). Cells were plated in six-well dishes overnight in antibiotic-free media. Cells were incubated with Optimen (GIBCO) for an hour before transfection using Lipofectamine 2000 (Invitrogen) and siRNA (30 nM) according to the manufacturer's recommendation. Cells were either harvested at 48 h after transfection or incubated with VX-680 for another 48 h before analysis.

A549 cells [3] = experiment: Mitotic index of A549 cells exposed to VX-680; assay type: cell-based; details: A549, VX-680 200 nM
Experimental: (B) is a graph showing the Mitotic index of A549 cells exposed to VX-680. A549 cells were incubated with VX-680 (200 nM) and the mitotic cells were counted and expressed as a percentage of total cells count. To aid visualization of the condensed chromosomes, H2B-GFP was expressed in A549. Each data point represents the mean±SD (n=3).

A549 cells [4] = experiment: Micronuclei formation and γH2AX staining (immunofluorescence microscopy) in A549 cells; assay type: cell-based
Experimental: Cells were fixed and stained for γH2AX (green) as described in Materials and Methods in the Examples. Nuclei were counterstained with DAPI blue. Visualization of nuclei and γH2AX positive foci was done by fluorescence microscopy.
Indirect immunofluorescence was carried out as described previously.^14 g-H2AX (Novus Biologicals, Littleton, Colo., USA, NB 100-383) and anti-rabbit Alexa 488-coupled secondary antibody (Molecular Probes, Carlsbad, Calif., USA) were used. Nuclei were counterstained with Hoechst 33342 (Molecular Probes). Immunofluorescence was visualized using Axiolmager Z1 (Zeiss, Gottingen, Germany).

A549 cells [5] = experiment: Time course of cell cycle distribution of A549 cells incubated with VX-680; assay type: cell-based; details: A549, 200 nM VX-680, after 48 h
Experimental: After 48 h, more than 35% of cells were arrested in tetraploid G2/M (8N) (FIG. 2a). […] Together, the results confirmed that the 8N cells were arrested predominantly in G2 and VX-680 inhibited mitosis in part through a G2 checkpoint.

[6] = tested on: Cdk/cyclin kinase activities (Cdk2, cdc2, cyclins A2 and B1) in A549 cells; experiment: Cdk/cyclin kinase activities after incubation with VX-680 (immunoprecipitation, histone H1 kinase assay); assay type: cell-based; details: A549, VX-680 time course
Experimental: (b) is a series of western blots showing the kinetics of Kinetics of Cdk/cyclin kinase activities after incubation with VX-680. Cdk/cyclin kinase activities were assayed in vitro (refer to Materials and Methods in Examples). Cdk2, cyclins A and B1 were immunoprecipitated from cell lysates using specific antibodies followed by in vitro kinase assays using histone H1 as a substrate. Suc1 is used to capture Cdk1 and Cdk2 complexes by protein pull down as described in Materials and Methods. […]
The immunoprecipitated beads were resuspended in 5 μl of EB buffer, 10 mM DTT and 20 to […]. […] After electrophoresis on 12.5% polyacrylamide gels, phosphorylation was analyzed by autoradiography and quantified by phosphorimage analysis.

[7] = tested on: cyclins A2 and B1 in A549 cells; experiment: Western blot of cell cycle-related proteins after VX-680 treatment; assay type: cell-based; details: A549, VX-680 time course
Experimental: (c) is a series of western blots showing the comparison of expression levels of cell cycle-related proteins (Rb, cdc2, Cdk2, cyclin A2, cyclin E1 and cyclin B1) and p53-dependent gene products (MDM2 and p21) at the indicated time points after VX-680 treatment. Downregulation of mitotic cyclins A and B and upregulation of p53-dependent genes p21 and MDM2 correlate with the activation of p53.
For western blotting, cell extracts were prepared using NP-40 lysis buffer (50 mM Tris-HCl (pH 8.0), 150 mM NaCl, 1% NP-40, 5 mM EDTA supplemented with protease and phosphatase inhibitor cocktails (Sigma).

In the case of `Cc1cc(Nc2cc(N3CCN(C)CC3)nc(Sc3ccc(NC(=O)C4CC4)cc3)n2)[nH]n1` [VX-680, cyclopropane carboxylic acid of {4-[4-(4-methyl-piperazin-1-yl)-6-(5-methyl-2H-pyrazol-3-ylamino)-pyrimidin-2-ylsulphanyl]-phenyl}-amide], the number of colonies (A549 cells [1]) is reported as “drastically reduced”, the tetraploidy formation (human keratinocytes) is reported as “significant tetraploid G2/M population” and the “cells with 16n DNA content” value [2] is reported as over 15%. For the same compound, the “time at which the mitotic index peaked” value (A549 cells [3]; after treatment) was 16 h, the mitotic index (A549 cells [3]; at 48 h) was 2% and the “cells containing at least 1 micronucleus per nucleus” value (A549 cells [4]; A549, VX-680 48 h) was “More than 70%”. The “γH2AX staining in the micronuclei” value (A549 cells [4]; A549, VX-680-treated) was “increased”, the “cells arrested in tetraploid G2/M (8N)” value (A549 cells [5]) was “more than 35%” and the “Cdk2 and cdc2 kinase activities” value [6] was “markedly reduced to undetectable levels”. The “cyclins A2- and B1-associated kinase activities” value [6] was “rapid reduction” and the “protein levels of cyclins A2 and B1” value [7] was “timedependent decrease”.
